Counter-ions that a name gives are not always drawn.
System: arteria pulmonalis of the guinea pig
Assay: Relaxing action on potassium-depolarized, CaCl2-contracted spiral strips of guinea pig pulmonary artery (modified method of Godfraind and Kaba and of Schuman et al)
Assay type: cell-based
Conditions: Cavia porcellus; spiral strips depolarized with 40 mmol/l potassium; contraction initiated with 0.5 mmol/l CaCl2; cumulative addition; mean value of 4 to 6 strips of vessel; read-out: IC50 (concentration of test substance which inhibits the contraction by 50%)
Description: The pharmacological action of the compounds of the formula I has been determined by a modified method of Godfraind and Kaba (Arch. Int. Pharmacodyn. Ther. 196, (Suppl) 35 to 49, 1972) and of Schuman et al (Naunyn-Schmiedeberg's Arch Pharmacol. 289 409 to 418, 1975). […], spiral strips of the arteria pulmonalis of the guinea pig are depolarized with 40 mmol/l of potassium after equilibration in calcium-free tyrode solution. Addition of 0.5 mmol/l of CaCl2 then initiates a contraction. The relaxing action of the test substance is determined by cumulative addition in concentrations in steps of 1/2 log 10. The concentration of test substance which inhibits the contraction by 50% (=IC50, mol/l) is determined from the concentration/effects curve (abscissa: -log mol/l of test substance, ordinate: % inhibition of the maximum concentration, mean value of 4 to 6 strips of vessel).

Q: For `CC1(C)CCCC(C)(C)N1[n+]1cc(=N)o[n-]1` [a, 3-(2,2,6,6-Tetramethylpiperidino)-sydnonimine hydrochloride], which IC50 is on record?
A: 30 µM

Q: With `CC(C)N1CC(C)(C)N([n+]2cc(=N)o[n-]2)C(C)(C)C1` [b, 3-(2,2,6,6-Tetramethyl-4-isopropyl-piperazin-1-yl)sydnonimine dihydrochloride] as the compound, how does the IC50 read?
A: 3 µM

Q: How did the IC50 turn out when `CC1(C)COCC(C)(C)N1[n+]1cc(=N)o[n-]1` [c, 3-(3,3,5,5-Tetramethylmorpholino)-sydnonimine hydrochloride] was run?
A: 100 µM

Q: Which IC50 does the source give for `CCOC(=O)[N-]c1cn(N2CCOCC2)n[o+]1` [d, N-Ethoxycarbonyl-3-morpholinosydnonimine, reference compound] here?
A: 300 µM

Reference: patent US4937244A, “Substituted 3-aminosydnonimines, processes for their preparation and their use” (Cassella Aktiengesellschaft, priority 1987, dated 1990)
